According to PMC7394005, “Assessing the Selectivity of FXR, LXRs, CAR, and RORγ Pharmaceutical Ligands With Reporter Cell Lines” (Frontiers in Pharmacology, 2020):

What was measured:
Format in all cases: cell-based
human LXRα [1] = biological target: T1, human LXRα (Homo sapiens, UniProt Q13133); test: HG5LN GAL4-LXRα reporter cell line, antagonist mode in presence of T0901317; details: read-out: LXRα (T0901317 20 nM) IC50; in presence of T0901317 20 nM; NE = No effect
T1 construct: LXRα (A187-E447); expressed in transfected cells; host or cells: HG5LN (HeLa cells carrying the (GAL4RE)5-βGlob-Luc-SVNeo reporter)
T1 sequence (Q13133 187-447): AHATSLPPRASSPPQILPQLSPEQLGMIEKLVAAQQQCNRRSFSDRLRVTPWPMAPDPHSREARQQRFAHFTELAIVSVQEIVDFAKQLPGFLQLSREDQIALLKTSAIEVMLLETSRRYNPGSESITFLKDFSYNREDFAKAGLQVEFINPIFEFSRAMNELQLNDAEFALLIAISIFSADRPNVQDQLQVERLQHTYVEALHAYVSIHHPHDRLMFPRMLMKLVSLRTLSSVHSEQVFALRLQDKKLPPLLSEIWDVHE
From the text: (§1) To construct GAL4-NR chimeras, individual LBDs of human FXR (R193-Q486), LXRα (A187-E447), LXRβ (G199-E461), CAR (M76-S348), and RORγ (S97-K518) were amplified by PCR with primers containing XhoI and SacI restriction sites (FXR), XhoI and BamHI (LXRs, CAR, RORγ) and inserted in pSG5-GAL4(DBD)-puromycin plasmid. To construct GAL4-CAR (+ APYLT) (M76-S353), the five amino acids APYLT were inserted by overlap extension PCR between amino acids P270 and D271 of CAR.
(§2) To characterize the specificity of chemicals for human FXR, LXRα, LXRβ, CAR and RORγ, we established in a similar manner HG5LN FXR, LXRα, LXRβ, CAR WT, CAR (APYLT) and RORγ reporter cell lines. […] These cells were stably transfected by pSG5-GAL4 (DBD)-NRs (LBD)-puromycin plasmid and selected in presence of 0.5 µg/ml puromycin. […] From each HG5LN NR cells, 5 to 10 clones were chosen for their ligand inducibility of luciferase expression. […] The most inducible clones were expanded and rechecked for inducibility and aliquots were frozen at different passages. One clone per receptor was maintained in culture and used for ligand screening. HG5LN cells were cultured in Dulbecco’s modified Eagle’s medium (DMEM): Nutrient Mixture F-12 (DMEM/F-12) containing phenol red and 1 g/l glucose and supplemented with 5% fetal bovine serum, 100 units/ml of penicillin, 100 µg/ml of streptomycin and 1 mg/ml geneticin, in 5% CO2 humidified atmosphere at 37°C. Stably transfected cell lines derived from HG5LN cells were cultured in the same culture medium supplemented with 0.5 µg/ml puromycin.
(§3) Individual reporter cell lines were seeded at a density of 40,000 cells per well in 96-well white opaque tissue culture plates (Greiner CellStar) in Dulbecco’s Modified Eagle Medium: Nutrient Mixture F-12 (DMEM/F-12) without phenol red and 1 g/l glucose and supplemented with 5% stripped fetal bovine serum, 100 units/ml of penicillin, 100 µg/ml of streptomycin (test medium). Chemicals to be tested were added 24h later, and cells were incubated at 37°C for 16h. Experiments were performed in quadruplicates. At the end of the incubation period, culture medium was replaced with test medium containing 0.3 mM luciferin solution. Luciferase activity was measured for 2s in intact living cells after 10 min stabilization using a Micro Beta Wallac luminometer (PerkinElmer). EC50 values were calculated using GraphPad Prism (GraphPad Software Inc).
(§4) Chemicals tested for agonism on FXR, LXRs, CAR (+ APYLT), PXR, and antagonism on CAR and RORγ were tested alone, without addition of any other ligand.
(§5) In the transactivation assay, each compound was tested at various concentrations in three independent experiments at least. For each experiment, tests were performed in quadruplicates for each concentration, and data are expressed by means values with standard deviations. Individual agonist dose–response curves, in the absence and presence of antagonist, were fitted using the sigmoid dose-response function of a graphics and statistics software program (GraphPad Prism, version 5.0). EC50 (effective concentration for half-maximal luciferase activity) and IC50 (half-maximal inhibitory concentration) values were calculated from equations used to fit the data in this graphic software. Transactivation data are presented as EC50 and IC50 values for each compound tested. To analyze significances, we compared individual compound treatments with controls using one-way analysis of variance (ANOVA) with the help of GraphPad Prism software.

human LXRβ [2] = biological target: T2, human LXRβ (Homo sapiens, UniProt P55055); test: HG5LN GAL4-LXRβ reporter cell line, agonist mode; details: HG5LN GAL4-LXRβ cells, tested alone; NE = No effect; read-out: LXRβ EC50
T2 construct: LXRβ (G199-E461); expressed in transfected cells; host or cells: HG5LN (HeLa cells carrying the (GAL4RE)5-βGlob-Luc-SVNeo reporter)
T2 sequence (P55055 198-460 limits assumed): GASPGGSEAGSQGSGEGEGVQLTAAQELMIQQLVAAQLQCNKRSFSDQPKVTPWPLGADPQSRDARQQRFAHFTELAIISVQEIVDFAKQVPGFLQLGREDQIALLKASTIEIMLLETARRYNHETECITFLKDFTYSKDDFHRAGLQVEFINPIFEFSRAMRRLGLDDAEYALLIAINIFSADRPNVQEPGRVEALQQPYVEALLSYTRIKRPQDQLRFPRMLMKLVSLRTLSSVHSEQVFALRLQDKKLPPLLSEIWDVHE
From the text: as §1, §2, §3, §4, §5

human RORγ [3] = biological target: T3, human RORγ (Homo sapiens, UniProt P51449); test: HG5LN GAL4-RORγ reporter cell line, inhibition of constitutive activity; details: inhibition of constitutive activity, tested alone; NE = No effect
T3 construct: RORγ (S97-K518); expressed in transfected cells; host or cells: HG5LN (HeLa cells carrying the (GAL4RE)5-βGlob-Luc-SVNeo reporter)
T3 sequence (P51449 97-518): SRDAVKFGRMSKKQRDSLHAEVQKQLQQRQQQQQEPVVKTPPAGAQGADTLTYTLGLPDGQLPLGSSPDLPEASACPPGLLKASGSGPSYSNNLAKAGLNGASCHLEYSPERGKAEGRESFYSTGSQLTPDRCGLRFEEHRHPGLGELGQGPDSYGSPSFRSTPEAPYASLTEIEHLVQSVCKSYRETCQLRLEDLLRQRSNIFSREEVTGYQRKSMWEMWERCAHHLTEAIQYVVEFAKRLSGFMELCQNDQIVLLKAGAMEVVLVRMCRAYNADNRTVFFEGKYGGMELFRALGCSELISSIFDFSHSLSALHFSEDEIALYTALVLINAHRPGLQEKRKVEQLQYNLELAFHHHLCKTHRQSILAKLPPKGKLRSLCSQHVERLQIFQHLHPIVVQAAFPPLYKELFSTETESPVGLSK
From the text: as §1, §2, §3, §4, §5

human RORγ [4] = biological target: T3, human RORγ; test: HG5LN GAL4-RORγ reporter cell line, agonist mode in presence of SR2211; details: read-out: RORγ (SR2211 1 mM) EC50; in presence of SR2211 1 mM; NE = No effect
From the text: as §1, §2, §3, §4, §5

human LXRβ [5] = biological target: T2, human LXRβ; test: HG5LN GAL4-LXRβ reporter cell line, antagonist mode in presence of T0901317; details: read-out: LXRβ (T0901317 100 nM) IC50; in presence of T0901317 100 nM; NE = No effect
From the text: as §1, §2, §3, §4, §5

human PXR = biological target: T4, human PXR (Homo sapiens, UniProt O75469); test: HG5LN PXR reporter cell line, agonist mode; details: NE = No effect
T4 construct: The GAL4-NR chimeric cell lines provide uniform cellular model differing just in receptor LBDs; expressed in transfected cells; host or cells: HG5LN PXR (HeLa-derived; described in Delfosse et al., 2015)
T4 sequence (O75469 146-433 limits assumed): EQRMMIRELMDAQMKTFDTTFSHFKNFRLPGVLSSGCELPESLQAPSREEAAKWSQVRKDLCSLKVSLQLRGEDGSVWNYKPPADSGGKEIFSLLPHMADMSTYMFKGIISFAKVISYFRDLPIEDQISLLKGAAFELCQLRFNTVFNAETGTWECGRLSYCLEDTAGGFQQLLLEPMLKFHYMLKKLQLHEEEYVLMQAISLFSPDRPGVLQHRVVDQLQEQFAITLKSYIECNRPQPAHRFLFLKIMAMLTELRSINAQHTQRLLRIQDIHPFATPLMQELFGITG
Method: as §2, §3, §4, §5

human LXRα [6] = biological target: T1, human LXRα; test: HG5LN GAL4-LXRα reporter cell line, agonist mode; details: HG5LN GAL4-LXRα cells, tested alone; NE = No effect; read-out: LXRα EC50
From the text: as §1, §2, §3, §4, §5

`CCC(C)N(C)C(=O)c1cc2ccccc2c(-c2ccccc2Cl)n1` (centres unmarked) [PK11195] showed an IC50 (human LXRα [1]) greater than 10 µM, an EC50 (human LXRβ [2]) greater than 10 µM and an IC50 (human RORγ [3]) greater than 10 µM. The EC50 (human RORγ [4]) was greater than 10 µM, the IC50 (human LXRβ [5]) was greater than 10 µM and the EC50 (human PXR; HG5LN PXR cells, tested alone, read-out: PXR EC50) was 0.726 ± 0.056 µM. The “PXR % max act” value (human PXR; maximal luciferase activity at 10^-5 M (10^-6 M *, 3 10^-6 M **), 100% = 3 µM SR12813, DMSO 19 ± 2) was 80% and the EC50 (human LXRα [6]) was greater than 10 µM.
